Source: the supplement of paper PMC5412046
Structures can show the parent of a compound that is named as a salt.

Tested on: SB.msgc-1
Assay: AC50 for growth inhibition (viability) (log10 M); higher = less potent
Details: SB.msgc-1 (sporadic gastric cancer)
Method in brief: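 Dosing used a pintool to add 23 nL compound in DMSO to 1536 wells, each with 500 hereditary or sporadic patient-derived gastric cancer cells, across 11 threefold dilutions starting at a final 46 μM. Viability after 48 h was measured by CellTiter-Glo luminescence on a ViewLux. The log half-maximal activity concentration derives from a four-parameter fit of that viability normalised to DMSO, limited to high-quality curve classes.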

SMILES | AC50 for growth inhibition (log10 M)
NC\1=N\C(=O)N(\C=C1)[C@@H]2O[C@H](CO)[C@@H](O)[C@@H]2O [Cytarabine] | -7.18
CC(C)c1cc(C(C)C)c(CC(=O)N[S+](=O)([O-])Oc2c(C(C)C)cccc2C(C)C)c(C(C)C)c1 [Avasimibe] | -4.78
CC1(C)[C@H](C(=O)O)N2C(=O)C[C@H]2[S+]1(=O)[O-] [Sulbactam] | -4.83
COC(=O)\C1=C\CCN(C)C1 [Arecoline] | -4.68
CCCCCNC(=O)N1CCC(CN(Cc2ccc(Cl)cc2)Cc2ccc([N+](=O)[O-])s2)C1 (stereo unspecified) [SR9011] | -4.73
CC(C)(C)c1cc(C(=O)O)c(NC(=O)Nc2ccc3[nH]ncc3c2)s1 [S6K-18] | -4.88
Clc1ccccc1C(c1ccccc1)(c1ccccc1)n1cccn1 [TRAM-34] | -5.88
O=[N+]([O-])c1ccc(Nc2ccccc2-c2ccccc2)c2nonc12 | -4.53
CNC(=O)c1ccccc1Sc1ccc2c(/C=C/c3ccccn3)n[nH]c2c1 [Axitinib] | -4.68
CC(=O)Nc1nc(C)c(-c2ccc(Cl)c([S+](=O)([O-])NCCO)c2)s1 [PIK-93] | -5.83
CC(C(=O)O)c1cccc(C(=O)c2ccccc2)c1 (stereo unspecified) [Ketoprofen] | -5.03
Cn1cc(/C=C/C(=O)c2cccc(F)c2)cc1/C=C/C(=O)NO [MC-1568] | -4.88
CCCCCNC(=N)N/N=C/c1c[nH]c2ccc(OC)cc12 [Tegaserod maleate] | -5.13
OC[C@H]1O[C@H](C[C@@H]1O)[N]2C=NC3=C2\N=C/NC[C@H]3O [Pentostatin] | -4.68
CC[C@@]1(O)C(=O)OC\C2=C1\C=C3/N(CC4=CC5=C(C=CC(=C5CN(C)C)O)N=C34)C2=O [Topotecan hydrochloride] | -6.73
Cc1cn([C@H]2C=C[C@@H](CO)O2)c(=O)[nH]c1=O [Stavudine] | -4.37
NC(=O)Nc1cc(-c2cccc(F)c2)sc1C(=O)N[C@H]1CCCNC1 [AZD-7762] | -6.73
Nc1nc2ccc(OC(F)(F)F)cc2s1 [Riluzole] | -4.73
COCC(=O)NC/C=C/c1ccc2ncnc(Nc3ccc(Oc4ccc(C)nc4)c(C)c3)c2c1 | -6.58
N#C[C@@H]1C[C@@H]2C[C@@H]2N1C(=O)[C@@H](N)C12CC3CC(CC(O)(C3)C1)C2 [Saxagliptin] | -4.98
N=C(N)NC(=N)NCCc1ccccc1 [Phenformin hydrochloride] | -5.88
COc1cc2c(cc1O)CCC1C2CC[C@@]2(C)C1CC[C@@H]2O (stereo partly specified) [2-Methoxyestradiol] | -5.33
NCC1CCC(C(=O)O)CC1 (stereo unspecified) [Tranexamic acid] | -5.18
COc1cc2c(Nc3ccc(NC(=O)c4ccccc4)cc3)ncnc2cc1OCCCN1CCOCC1 | -4.83

SMILES | AC50 for growth inhibition (log10 M)
Cl.O[C@@H](CNC[C@H](O)[C@H]1CCc2cc(F)ccc2O1)[C@@H]1CCc2cc(F)ccc2O1 [Nebivolol] | -4.93
COc1cc(Nc2c(C#N)cnc3cc(OCCCN4CCN(C)CC4)c(OC)cc23)c(Cl)cc1Cl [Bosutinib] | -5.58
N\C1=N\C2=C(N=C[N]2COC(CO)CO)C(=O)N1 [Ganciclovir] | -5.28
CCCNC(=O)Nc1ccc(Oc2ncnc3cc(OC)c(OC)cc23)cc1Cl [KRN-633] | -4.68
Cn1cnc(N)c2ncnc1-2 [3-Methyladenine] | -5.28
CCCCc1ccc2[nH]c(NC(=O)OC)nc2c1 [Parbendazole] | -6.83
O=[S+]([O-])(/N=C/c1c(O)ccc2ccccc12)c1cccs1 | -5.03
COC1=CC=CC(=C1N)\C2=C\C(=O)C3=C(O2)C=CC=C3 | -4.68
CN1C(=O)/C(=C(NC2=CC=C(I)C=C2F)\C3=C1\N=C/N(C[C@@H](O)CO)C3=O)F [TAK-733] | -6.48
C\C1=C(\C=C(\C#N)C(=O)N1)C2=CC=NC=C2 [Milrinone] | -4.73
COc1ccc(COc2cc3oc(=O)c4cc(C(C)O)ccc4c3cc2OC)cc1 (stereo unspecified) | -4.63
C=C(C)[C@@H]1CC[C@]2(C(=O)O)CC[C@]3(C)[C@H](CC[C@@H]4[C@@]5(C)CC[C@H](O)C(C)(C)[C@@H]5CC[C@]43C)[C@@H]12 [Betulinic acid] | -4.83
O=[N+]([O-])c1cn2c(n1)OC[C@@H](OCc1ccc(OC(F)(F)F)cc1)C2 [PA-824] | -5.33
CN(C)CCN(Cc1ccc(Cl)cc1)c1ccccn1.Cl [Halopyramine] | -4.68
NC(=O)[C@@H](CCC(F)(F)F)N(Cc1ccc(-c2ncon2)cc1F)[S+](=O)([O-])c1ccc(Cl)cc1 [Avagacestat] | -4.83
O=C(O)CCCc1ccc(N(CCCl)CCCl)cc1 [Chlorambucil] | -5.33
OCCCNc1cc(-c2ccnc(Nc3cccc(Cl)c3)n2)ccn1 | -6.68
Nc1cccc([S+](=O)([O-])N2CCCN([S+](=O)([O-])c3ccc4c(c3)OCCO4)CC2)c1 | -4.88
O=C1Cc2cc(CCN3CCN(c4nsc5ccccc45)CC3)c(Cl)cc2N1 [Ziprasidone hydrochloride] | -4.63
O=C(Nc1cccnc1)N1CCC(Cc2cccc(Oc3ccc(C(F)(F)F)cn3)c2)CC1 [PF-3845] | -4.78
Cc1cccc(CN2CCN(C(c3ccccc3)c3ccc(Cl)cc3)CC2)c1 (stereo unspecified) [Meclizine hydrochloride] | -4.68
Cc1cc(-c2ccc(CC(=O)Nc3ccc(-c4cccnc4)cc3)cc2)ccn1 [Wnt-C59] | -4.78
C/C=C/C(=O)N(CC)c1ccccc1C [Crotamiton] | -4.98
CC[P](CC)(CC)=[Au][S][C@@H]1OC(COC(C)=O)[C@@H](OC(C)=O)[C@H](OC(C)=O)C1OC(C)=O (stereo partly specified) [Auranofin] | -5.53

SMILES | AC50 for growth inhibition (log10 M)
CCc1c(O)cc(O)c(C(=O)c2ccc(OCCN3CCOCC3)c(OC)c2)c1CC(=O)N(CCOC)CCOC [KW-2478] | -6.58
CS[C@H]1SC[C@@H]2C(=O)N(C)[C@H](C(C)C)C(=O)OC[C@H](NC(=O)c3cnc4ccccc4n3)C(=O)N[C@H](C)C(=O)N(C)[C@H]1C(=O)N(C)[C@H](C(C)C)C(=O)OC[C@H](NC(=O)c1cnc3ccccc3n1)C(=O)N[C@H](C)C(=O)N2C [Echinomycin] | -8.33
COc1cc2c(cc1OC)CC(=O)N(CCCN(C)C[C@H]1Cc3cc(OC)c(OC)cc31)CC2.Cl [Ivabradine hydrochloride] | -4.58
C[S+](=O)([O-])c1cccc(CNc2nc(Nc3ccc4c(c3)CCC(=O)N4)ncc2C(F)(F)F)c1 | -4.78
COC(=O)Nc1nc2cc(C(=O)c3cccs3)ccc2[nH]1 [Nocodazole] | -7.98
CN(CC#C)C/C1=C/C2=CC=CC=C2OC3=CC=CC=C13 [Omigapil] | -4.63
CNC(=O)C1=CC=C(C)C(=C1)N2C(=C/C(=C(/Br)C2=O)OCC3=C(F)C=C(F)C=C3)\C | -4.98
CCc1cc(/C(C)=N/OCc2ccc(C3CCCCC3)c(C(F)(F)F)c2)ccc1CN1CC(C(=O)O)C1 [BAF-312] | -4.73
CC(C)c1ccc(Cn2ccc3c4c(N)nc(NC5CC5)nc4ccc32)cc1 | -5.78
CN1CCCN(C(=O)c2cccc(-c3ccc(/C=C4/C(=O)Nc5ccc(Cl)cc54)o3)c2)CC1 [CX-6258] | -4.73
NC(=O)C1CCCc2c1[nH]c1ccc(Cl)cc21 (stereo unspecified) [EX-527] | -4.78
Cc1c(C(=O)Nc2ccc(N3C[C@@H](C)O[C@@H](C)C3)nc2)cccc1-c1ccc(OC(F)(F)F)cc1 [NVP-LDE-225] | -4.83
CCCCCCCCOc1ccccc1C(=O)Nc1ccc(C(=O)OCC[N+](C)(CC)CC)cc1 [Octylonium bromide] | -4.68
O=C(NOC[C@H](O)CO)c1ccc(F)c(F)c1Nc1ccc(I)cc1F | -6.33
CCCn1c(=O)c2[nH]c(-c3cnn(Cc4cccc(C(F)(F)F)c4)c3)nc2n(CC)c1=O [CVT-6883] | -4.68
Fc1ccc(Cl)cc1-c1nc(Nc2ccncc2)c2nccnc2n1 [SD-208] | -4.93
C[C@H]1CC2C3CCC/4=C/C(=O)/C=C\[C@]4(C)[C@@]3(F)[C@@H](O)C[C@]2(C)[C@@]1(O)C(=O)CO (stereo partly specified) [Betamethasone] | -4.88
CC(C)C1=N[N](C\2=C1C(=O)N\C(=N2)CC3=CC=C(OCCO)C=C3)C4=C(Cl)C=CC=C4Cl | -6.88
CC(C)(OCc1nn(Cc2ccccc2)c2ccccc12)C(=O)O [Bindarit] | -5.08
N[S+](=O)([O-])OC[C@@H]1C[C@@H](n2ccc3c(N[C@H]4CCc5ccccc54)ncnc32)C[C@@H]1O [MLN-4924] | -5.48
Cc1nnc(N[S+](=O)([O-])c2ccc(N)cc2)s1 [Sulfamethizole] | -5.43
N#CC1(c2cccc(C(=O)Nc3cc(Oc4ccc5nc(NC(=O)C6CC6)sc5n4)ccc3F)c2Cl)CC1 [Takeda-6d] | -5.73
CC1COC2=C3N1\C=C(C(O)=O)/C(=O)C3=CC(=C2N4CCN(C)CC4)F (stereo unspecified) [Ofloxacin] | -4.73
